#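 Briefly, cells in 96-well plates were exposed to five compound concentrations for 48 h, and endpoints were estimated by linear interpolation. GI50 = concentration required for 50% inhibition of growth.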 Calls of active or inactive are those of the source. No stated cut-off is given here; in the data, active = GI50 up to about 1.1 µM and inactive = higher.
# Assays:
# Assay in all cases: NCI anticancer screen, dose series, 48 h
# [1] = system: MDA-MB-435
# [2] = system: NCI-H460
# [3] = system: SR
# [4] = system: NCI-H226
# [5] = system: 786-0
# [6] = system: PC-3
# [7] = system: EKVX
# [8] = system: SK-OV-3
# [9] = system: MCF7
# [10] = system: HOP-62
# [11] = system: T47D
# [12] = system: RPMI-8226
# [13] = system: MDA-N
# [14] = system: LOX IMVI
# [15] = system: NCI/ADR-RES
# [16] = system: BT-549
Compound,GI50 [1],GI50 [2],GI50 [3],GI50 [4],GI50 [5],GI50 [6],GI50 [7],GI50 [8],GI50 [9],GI50 [10],GI50 [11],GI50 [12],GI50 [13],GI50 [14],GI50 [15],GI50 [16]
CCOc1cc(/C=N\O)cc(/C=N/O)c1O,32.3 µM (inactive),31.9 µM (inactive),29.3 µM (inactive),37.9 µM (inactive),49.4 µM (inactive),28.2 µM (inactive),33.3 µM (inactive),59.4 µM (inactive),9.68 µM (inactive),37.1 µM (inactive),21.9 µM (inactive),24.7 µM (inactive),35.6 µM (inactive),22.2 µM (inactive),41.7 µM (inactive),
COc1ccc(CCCC(=O)O)c(C)c1,32.8 µM (inactive),11.7 µM (inactive),9.48 µM (inactive),22.7 µM (inactive),30.1 µM (inactive),37.9 µM (inactive),> 100 µM (inactive),,,26.4 µM (inactive),50.8 µM (inactive),,62.4 µM (inactive),30.1 µM (inactive),> 100 µM (inactive),84.9 µM (inactive)
O=C(NC(COC(=O)C(Cc1ccccc1)NC(=O)c1ccccc1)Cc1ccccc1)c1ccccc1 (stereo not drawn),> 50 µM (inactive),> 50 µM (inactive),> 50 µM (inactive),,,> 50 µM (inactive),> 50 µM (inactive),> 50 µM (inactive),> 50 µM (inactive),> 50 µM (inactive),,> 50 µM (inactive),,,,
N#Cc1c(-c2ccccc2)cn(C(=O)c2ccccc2)c1N,> 100 µM (inactive),,> 100 µM (inactive),> 100 µM (inactive),> 100 µM (inactive),> 100 µM (inactive),> 100 µM (inactive),> 100 µM (inactive),> 100 µM (inactive),> 100 µM (inactive),,> 100 µM (inactive),> 100 µM (inactive),> 100 µM (inactive),> 100 µM (inactive),
CC1(C)CCc2c(ccc(C(=O)/C=C/c3ccc(O)cc3)c2O)O1 [DORSMANNIN A],10.3 µM (inactive),12.1 µM (inactive),11.9 µM (inactive),11.3 µM (inactive),,8.57 µM (inactive),0.142 µM (active),17.7 µM (inactive),14.2 µM (inactive),9.91 µM (inactive),1.56 µM (inactive),8.39 µM (inactive),,10.2 µM (inactive),11.4 µM (inactive),12.2 µM (inactive)
CC1(C)OP(=O)(O)CC1=O,> 100 µM (inactive),> 100 µM (inactive),> 100 µM (inactive),> 100 µM (inactive),> 100 µM (inactive),> 100 µM (inactive),> 100 µM (inactive),> 100 µM (inactive),> 100 µM (inactive),> 100 µM (inactive),> 100 µM (inactive),,> 100 µM (inactive),> 100 µM (inactive),> 100 µM (inactive),
O=c1c(-c2ccccc2)c(SCCCN2CCCCC2)n(-c2ccccc2)c(=S)n1-c1ccccc1,17.7 µM (inactive),16.4 µM (inactive),16.2 µM (inactive),15.3 µM (inactive),,16.5 µM (inactive),> 100 µM (inactive),19.8 µM (inactive),15.6 µM (inactive),17.8 µM (inactive),,17 µM (inactive),,16.3 µM (inactive),16.5 µM (inactive),18 µM (inactive)
COC1/C=C/C(C)C(C(C)C(OC)C(C)CCC(=O)C(C)C(C/C=C/N(C)C=O)OC)OC(=O)/C=C/C=C(\C)CC(OC)CC2=CC(=O)O[C@H](C2)C(C)C(OC)CC(OC)/C=C/C(C)C(OC)C1 (stereo partly drawn),0.0286 µM (active),< 0.005 µM (active),< 0.005 µM (active),,,0.00989 µM (active),0.084 µM (active),0.00955 µM (active),0.0292 µM (active),< 0.005 µM (active),,< 0.005 µM (active),,< 0.005 µM (active),0.0107 µM (active),0.0108 µM (active)

# Source: ChEMBL document CHEMBL1201862, “PubChem BioAssay data set” (2004)
